According to patent publication US7138361B2, “Herbicidal heterocycles” (E. I. du Pont de Nemours and Company, priority 2000, dated 2006):

Key:
Format in all cases: in vivo
[1] = test system: smallflower flatsedge (Cyperus difformis); experiment: Test C flooded paddy test; conditions: for Flatsedge plant response rating: Flooded Paddy, scale 0 to 100, 0 no effect, 100 complete control; for Plant response rating, Flatsedge: flooded paddy test, scale 0 to 100 (0 no effect, 100 complete control)
Summary of the method: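 Visually assessed vs untreated controls 12–14 d post-treatment (greenhouse). Flooded paddy plants were at the 2-leaf stage; scale 0 = no effect, 100 = complete control.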

rice (Oryza saliva) = experiment: Test B preemergence
Summary of the method: (§1)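 Pre: seeded pots sprayed, chemical in non-phytotoxic solvent/surfactant mix. Post: plants 2–18 cm, 1–4 leaf, same formulation. Greenhouse 13–15 d; visual % control vs untreated, 0–100 scale.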

[2] = test system: velvetleaf (Abutilon theophrasti); experiment: Test B preemergence
Summary of the method: as §1

[3] = test system: lambsquarters (Chenopodium album); experiment: Test B preemergence
Summary of the method: as §1

[4] = test system: barnyardgrass (Echinochloa crus-galli); experiment: Test B preemergence
Summary of the method: as §1

[5] = test system: crabgrass (Digitaria sanguinalis); experiment: Test B preemergence
Summary of the method: as §1

[6] = test system: Surinam grass (Brachiaria decumbens); experiment: Test B preemergence
Summary of the method: as §1

corn (Zea mays) [7] = experiment: Test B preemergence
Summary of the method: as §1

[8] = test system: morning glory (Ipomoea hederacea); experiment: Test B preemergence
Summary of the method: as §1

[9] = test system: cocklebur (Xanthium strumarium); experiment: Test B preemergence
Summary of the method: as §1

[10] = test system: pigweed (Amaranthus retroflexus); experiment: Test B preemergence
Summary of the method: as §1

[11] = test system: giant foxtail (Setaria faberii); experiment: Test B preemergence
Summary of the method: as §1

[12] = test system: velvetleaf (Abutilon theophrasti); experiment: Test B postemergence; conditions: 13 to 15 days
Summary of the method: as §1

[13] = test system: lambsquarters (Chenopodium album); experiment: Test B postemergence; conditions: 13 to 15 days
Summary of the method: as §1

[14] = test system: barnyardgrass (Echinochloa crus-galli); experiment: Test B postemergence; conditions: 13 to 15 days
Summary of the method: as §1

[15] = test system: crabgrass (Digitaria sanguinalis); experiment: Test B postemergence; conditions: 13 to 15 days
Summary of the method: as §1

[16] = test system: Surinam grass (Brachiaria decumbens); experiment: Test B postemergence; conditions: 13 to 15 days
Summary of the method: as §1

corn (Zea mays) [17] = experiment: Test B postemergence; conditions: 13 to 15 days
Summary of the method: as §1

[18] = test system: morning glory (Ipomoea hederacea); experiment: Test B postemergence; conditions: 13 to 15 days
Summary of the method: as §1

[19] = test system: cocklebur (Xanthium strumarium); experiment: Test B postemergence; conditions: 13 to 15 days
Summary of the method: as §1

[20] = test system: pigweed (Amaranthus retroflexus); experiment: Test B postemergence; conditions: 13 to 15 days
Summary of the method: as §1

[21] = test system: blackgrass (Alopecurus myosuroides); experiment: Test B postemergence; conditions: 13 to 15 days
Summary of the method: as §1

[22] = test system: wheat (Triticum aestivum); experiment: Test B postemergence; conditions: 13 to 15 days
Summary of the method: as §1

[23] = test system: giant foxtail (Setaria faberii); experiment: Test B postemergence; conditions: 13 to 15 days
Summary of the method: as §1

wild oat (Avena fatua) = experiment: Test B postemergence; conditions: 13 to 15 days
Summary of the method: as §1

Sunflower [24] = experiment: Test C preemergence; conditions: Rate 250 g/ha, scale 0 to 100, 0 no effect, 100 complete control
Sunflower [25] = experiment: Test C preemergence; conditions: Rate 500 g/ha, visual evaluation after 12 to 14 days
[26] = Preemergence, Rate 500 g/ha, scale 0 to 100, 0 no effect, 100 complete control
[27] = preemergence, Rate 125 g/ha, scale of 0 to 100 where 0 is no effect and 100 is complete control, 13 to 15 days
[28] = Rate 125 g/ha, scale 0 (no effect) to 100 (complete control)
[29] = Rate 500 g/ha, scale 0 to 100, 0 is no effect, 100 is complete control

CC(C)Oc1cccc(N2CCC(n3ccc(C(C)C)n3)C2=O)c1 (centres unmarked) [Compound 82]
Flatsedge plant response rating ([1]; Rate 250 g/ha): 90
Flatsedge plant response rating ([1]; Rate 500 g/ha): 100
Plant response rating, Flatsedge ([1]; Rate 62 g/ha): 90
Plant response rating, Flatsedge ([1]; Rate 125 g/ha): 90
Plant response rating, Rice (rice (Oryza saliva); [26]): 100
Plant response rating, Rice (rice (Oryza saliva); [27]): 70
Plant response rating, Velvetleaf [2, 26]: 0
Plant response rating, Velvetleaf [2, 27]: 0
Plant response rating, Lambsquarters [3, 26]: 100
Plant response rating, Lambsquarters [3, 27]: 100
Plant response rating, Barnyardgrass [4, 26]: 100
Plant response rating, Barnyardgrass [4, 27]: 100
Plant response rating, Crabgrass [5, 26]: 100
Plant response rating, Crabgrass [5, 27]: 100
Plant response rating, Surinam grass [6, 26]: 100
Plant response rating, Surinam grass [6, 27]: 90
Plant response rating, Corn (corn (Zea mays) [7]; [26]): 20
Plant response rating, Corn (corn (Zea mays) [7]; [27]): 0
Plant response rating, Morningglory [8, 26]: 0
Plant response rating, Morningglory [8, 27]: 0
Plant response rating, Cocklebur [9, 26]: 0
Plant response rating, Cocklebur [9, 27]: 0
Plant response rating, Pigweed [10, 26]: 100
Plant response rating, Pigweed [10, 27]: 100
Plant response rating, Foxtail, Giant [11, 26]: 100
Plant response rating, Foxtail, Giant [11, 27]: 100
Plant response rating, Velvetleaf [12, 28]: 0
Plant response rating, Velvetleaf [12, 29]: 0
Plant response rating, Lambsquarters [13, 28]: 20
Plant response rating, Lambsquarters [13, 29]: 70
Plant response rating, Barnyardgrass [14, 28]: 0
Plant response rating, Barnyardgrass [14, 29]: 0
Plant response rating, Crabgrass [15, 28]: 0
Plant response rating, Crabgrass [15, 29]: 10
Plant response rating, Surinam grass [16, 28]: 0
Plant response rating, Surinam grass [16, 29]: 0
Plant response rating, Corn (corn (Zea mays) [17]; [28]): 0
Plant response rating, Corn (corn (Zea mays) [17]; [29]): 0
Plant response rating, Morningglory [18, 28]: 0
Plant response rating, Morningglory [18, 29]: 10
Plant response rating, Cocklebur [19, 28]: 0
Plant response rating, Cocklebur [19, 29]: 20
Plant response rating, Pigweed [20, 28]: 0
Plant response rating, Pigweed [20, 29]: 10
Plant response rating, Blackgrass [21, 28]: 0
Plant response rating, Blackgrass [21, 29]: 0
Plant response rating, Wheat [22, 28]: 0
Plant response rating, Wheat [22, 29]: 0
Plant response rating, Foxtail, Giant [23, 28]: 0
Plant response rating, Foxtail, Giant [23, 29]: 0
Plant response rating, Wild Oat (wild oat (Avena fatua); [28]): 0
Plant response rating, Wild Oat (wild oat (Avena fatua); [29]): 0
Plant response rating, Sunflower (Sunflower [24]): 70
Plant response rating (0 to 100), Sunflower (Sunflower [25]): 80

CCC(C)c1ccn(C2CCN(c3cccc(OC(C)C)c3)C2=O)n1 (centres unmarked) [Compound 83]
Flatsedge plant response rating ([1]; Rate 250 g/ha): 100
Flatsedge plant response rating ([1]; Rate 500 g/ha): 100
Plant response rating, Flatsedge ([1]; Rate 62 g/ha): 90
Plant response rating, Flatsedge ([1]; Rate 125 g/ha): 100
Plant response rating, Rice (rice (Oryza saliva); [26]): 100
Plant response rating, Rice (rice (Oryza saliva); [27]): 20
Plant response rating, Velvetleaf [2, 26]: 0
Plant response rating, Velvetleaf [2, 27]: 0
Plant response rating, Lambsquarters [3, 26]: 100
Plant response rating, Lambsquarters [3, 27]: 100
Plant response rating, Barnyardgrass [4, 26]: 100
Plant response rating, Barnyardgrass [4, 27]: 100
Plant response rating, Crabgrass [5, 26]: 100
Plant response rating, Crabgrass [5, 27]: 100
Plant response rating, Surinam grass [6, 26]: 90
Plant response rating, Surinam grass [6, 27]: 70
Plant response rating, Corn (corn (Zea mays) [7]; [26]): 20
Plant response rating, Corn (corn (Zea mays) [7]; [27]): 20
Plant response rating, Morningglory [8, 27]: 0
Plant response rating, Cocklebur [9, 26]: 0
Plant response rating, Cocklebur [9, 27]: 0
Plant response rating, Pigweed [10, 26]: 100
Plant response rating, Pigweed [10, 27]: 100
Plant response rating, Foxtail, Giant [11, 26]: 100
Plant response rating, Foxtail, Giant [11, 27]: 100
Plant response rating, Velvetleaf [12, 28]: 0
Plant response rating, Velvetleaf [12, 29]: 0
Plant response rating, Lambsquarters [13, 28]: 10
Plant response rating, Lambsquarters [13, 29]: 60
Plant response rating, Barnyardgrass [14, 28]: 0
Plant response rating, Barnyardgrass [14, 29]: 0
Plant response rating, Crabgrass [15, 28]: 0
Plant response rating, Crabgrass [15, 29]: 0
Plant response rating, Surinam grass [16, 28]: 0
Plant response rating, Surinam grass [16, 29]: 0
Plant response rating, Corn (corn (Zea mays) [17]; [28]): 0
Plant response rating, Corn (corn (Zea mays) [17]; [29]): 0
Plant response rating, Morningglory [18, 28]: 0
Plant response rating, Morningglory [18, 29]: 10
Plant response rating, Cocklebur [19, 28]: 10
Plant response rating, Cocklebur [19, 29]: 10
Plant response rating, Pigweed [20, 28]: 0
Plant response rating, Pigweed [20, 29]: 10
Plant response rating, Blackgrass [21, 28]: 0
Plant response rating, Blackgrass [21, 29]: 0
Plant response rating, Wheat [22, 28]: 0
Plant response rating, Wheat [22, 29]: 0
Plant response rating, Foxtail, Giant [23, 28]: 0
Plant response rating, Foxtail, Giant [23, 29]: 0
Plant response rating, Wild Oat (wild oat (Avena fatua); [28]): 0
Plant response rating, Wild Oat (wild oat (Avena fatua); [29]): 0
Plant response rating, Sunflower (Sunflower [24]): 0
Plant response rating (0 to 100), Sunflower (Sunflower [25]): 70

COc1cc(N2CCC(n3ccc(C(C)C)n3)C2=O)ccc1C (centres unmarked) [Compound 85]
Flatsedge plant response rating ([1]; Rate 250 g/ha): 100
Flatsedge plant response rating ([1]; Rate 500 g/ha): 100
Plant response rating, Flatsedge ([1]; Rate 62 g/ha): 90
Plant response rating, Flatsedge ([1]; Rate 125 g/ha): 100
Plant response rating, Rice (rice (Oryza saliva); [26]): 100
Plant response rating, Rice (rice (Oryza saliva); [27]): 100
Plant response rating, Velvetleaf [2, 26]: 100
Plant response rating, Velvetleaf [2, 27]: 20
Plant response rating, Lambsquarters [3, 26]: 100
Plant response rating, Lambsquarters [3, 27]: 100
Plant response rating, Barnyardgrass [4, 26]: 100
Plant response rating, Barnyardgrass [4, 27]: 100
Plant response rating, Crabgrass [5, 26]: 100
Plant response rating, Crabgrass [5, 27]: 100
Plant response rating, Surinam grass [6, 26]: 90
Plant response rating, Surinam grass [6, 27]: 60
Plant response rating, Corn (corn (Zea mays) [7]; [26]): 30
Plant response rating, Corn (corn (Zea mays) [7]; [27]): 20
Plant response rating, Morningglory [8, 26]: 100
Plant response rating, Morningglory [8, 27]: 90
Plant response rating, Cocklebur [9, 26]: 90
Plant response rating, Cocklebur [9, 27]: 40
Plant response rating, Pigweed [10, 26]: 100
Plant response rating, Pigweed [10, 27]: 100
Plant response rating, Foxtail, Giant [11, 26]: 100
Plant response rating, Foxtail, Giant [11, 27]: 80
Plant response rating, Velvetleaf [12, 28]: 20
Plant response rating, Velvetleaf [12, 29]: 50
Plant response rating, Lambsquarters [13, 28]: 30
Plant response rating, Lambsquarters [13, 29]: 90
Plant response rating, Barnyardgrass [14, 28]: 0
Plant response rating, Barnyardgrass [14, 29]: 50
Plant response rating, Crabgrass [15, 28]: 20
Plant response rating, Crabgrass [15, 29]: 50
Plant response rating, Surinam grass [16, 28]: 0
Plant response rating, Surinam grass [16, 29]: 0
Plant response rating, Corn (corn (Zea mays) [17]; [28]): 0
Plant response rating, Corn (corn (Zea mays) [17]; [29]): 30
Plant response rating, Morningglory [18, 28]: 0
Plant response rating, Morningglory [18, 29]: 80
Plant response rating, Cocklebur [19, 28]: 40
Plant response rating, Cocklebur [19, 29]: 100
Plant response rating, Pigweed [20, 28]: 60
Plant response rating, Pigweed [20, 29]: 90
Plant response rating, Blackgrass [21, 28]: 0
Plant response rating, Blackgrass [21, 29]: 20
Plant response rating, Wheat [22, 28]: 0
Plant response rating, Wheat [22, 29]: 0
Plant response rating, Foxtail, Giant [23, 28]: 0
Plant response rating, Foxtail, Giant [23, 29]: 20
Plant response rating, Wild Oat (wild oat (Avena fatua); [28]): 0
Plant response rating, Wild Oat (wild oat (Avena fatua); [29]): 20
Plant response rating, Sunflower (Sunflower [24]): 70
Plant response rating (0 to 100), Sunflower (Sunflower [25]): 70
